Patent publication US10668118B2, “Microbial consortium and uses thereof” (The Regents of the University of California, priority 2016, dated 2020)
“Also recorded” adds a separate entry of the source.

System: CD4^+CD25^+FOXP3^+ cells
Experiment: Ex vivo dendritic cell challenge and T cell co-culture with 12,13-DiHOME
Format: cell-based, human
Method: Ex vivo dendritic cell challenge and T cell co-culture. Fecal samples from five of ten NGM1 and seven of eight NGM3 neonates that had undergone metabolic profiling were used (biological replicates). Excluded samples from these groups had insufficient volume for analyses. Fecal samples were homogenized 1 g ml^−1 (w:v) in pre-warmed phosphate-buffered saline (PBS) containing 20% FBS (FBS). Samples were vortexed, incubated (37° C., 10 min) and centrifuged (14,000 rpm, 30 min). Supernatant was filter-sterilized through a 0.2-μm filter before being used in the dendritic cell (DC) T cell assay described below. PBS was used as the negative control. Treatment conditions used for the DiHOME experiment included: 75 μM, 130 μM and 200 μM 12,13 DiHOME (Cayman Chemical, Ann Arbor, Mich.) solubilized in 0.4%, 0.15% and 0.05% DMSO, respectively. DiHOME solutions were added to R10 media (Roswell Park Memorial Institute media 1640 with 10% heat-inactivated FBS (antigen activator) and 2 mM 1-glutamine and 100 U ml^−1 penicillin-streptomycin added; Life Technologies) and exposed to DCs within 1 h of preparation. Controls included PBS and DMSO (delivered in R10 media) at corresponding percentages used to dissolve the different concentrations of DiHOME.
Peripheral blood mononuclear cells (PBMCs) were purified from plasma obtained from healthy, de-identified human donors (Blood Centers of the Pacific, San Francisco, Calif.) through the cell-sourcing program that ensures donor confidentiality. Donors signed an agreement acknowledging that their blood may be used for research. PBMCs were isolated using Ficoll-Hypaque gradient centrifugation, washed twice with R10 media and incubated for 18 h. Dendritic cells (DCs) were isolated from PBMCs using the EasySep Human Pan-DC Pre-Enrichment Kit (STEMCELL Technologies, Vancouver, BC). DCs (0.5×10^6 cells ml^−1) from two donors (biological replication) were treated in triplicate (treatment replicate) with either cell-free fecal water ([…]) or varying concentrations of DiHOME, and cultured in R10 media supplemented with 10 ng ml^−1 GM-CSF and 20 ng ml^−1 IL-4 at 37° C.^27 for 2 d, for the fecal-water assay, or 5 d, for the DiHOME experiment. For the DiHOME experiment, freshly prepared media containing DiHOME or control exposures was replaced every 48 h. For the fecal-water experiment, the assay was repeated twice on one donor (technical replicates) and once on donor B owing to insufficient numbers of cells recovered from the latter donor. Treatment replicates were also considered biological replicates because the human donor cells are not clonal.
Twenty-four hours before co-culture with CD4^+ T cells, DC maturation was stimulated by using DC growth mediators (10 ng ml^−1 […] [(TNF-α), 10 ng ml^−1 IL-1b, 10 ng ml^−1 IL-6 and […] (PGE2)]. In preparation for co-culture, DCs were washed in fresh R10 media, counted via flow cytometry and plated in TexMACs Medium (Miltenyi Biotec, San Diego, Calif.) at 0.5×10^6 live CD45^+ cells per well.
Autologous T lymphocytes were purified from the PBMCs using a naïve CD4^+ T cell isolation kit (Miltenyi Biotec). After purification, naïve autologous CD4^+ T cells were suspended in the TexMACS Medium (Miltenyi Biotec) and added to the treated DCs at a ratio of 10:1 in the presence of soluble anti-CD28 and anti-CD49d ([…]). […] Cytokine secretion was evaluated by cytometric bead array, following the manufacturer's protocol (BD Biosciences). […]

Compound: CCCCCC(O)C(O)C/C=C\CCCCCCCC(=O)O (centres unmarked) [12,13-DiHOME]
- proportion of CD4^+CD25^+FOXP3^+ cells (75 μM, compared to vehicle control (LME P=0.04)): significantly reduced
- proportion of CD4^+CD25^+FOXP3^+ cells (130 μM, compared to vehicle control (LME P<0.001)): significantly reduced
- effect size for the suppression of CD4^+CD25^+FOXP3^+ (130 μM, preliminary assays): approximately seven
- proportion of CD4^+CD25^+FOXP3^+ cells (200 μM, compared to vehicle control (LME P=0.001)): significantly reduced
- proportion of CD4^+CD25^+FOXP3^+ cells (all concentrations examined, compared with vehicle treatment): recapitulated the effect of NGM3 fecal water; also recorded: reduced
